Laboratory results as given in US20090181115A1, “Method of Screening for Compounds That Alter Skin and/or Hair Pigmentation” (priority 2006, published 2009).
“Also recorded” adds a separate entry of the source.

Tests used:
B16 cells [1] = experiment: Cell viability of B16 cells after siRNA treatment (Wst1 assay); format: cell-based, mouse; details: end of each experiment
Procedure: (§1) Media was removed and melanin quantified by OD450. Cell viability measured using Wst1 proliferation reagent (Roche) before lysis using 1% triton ×100. Protein content of each well was determined by BCA assay.
Cell viability and protein content determination post-treatment could help to identify the manner in which SLC24A5 modulates pigment production in B16 melanocytes. […] This conclusion is supported by data obtained for protein content.
• The phenol free DMEM culture media was removed from each well for quantification of secreted melanin. Each well of the culture plate was then rinsed once with Dulbeccos phosphate buffered saline (dPBS) (Sigma-Aldrich, Poole, UK) and replaced with 0.5 ml Wst1 reagent (diluted 1/10 in media) (Roche Diagnostics Ltd, West Sussex, UK). The culture plate was incubated at 37° C., 5% CO2 for 30 minutes. The Wst1 reagent was removed from each well for determination of cell viability and each well was again rinsed with dPBS. 200 μl of 1% w/v Triton X-100 (Sigma-Aldrich, Poole, UK) in dPBS was added to each well of the culture plate. The plate was incubated for 20 minutes at 4° C. on an orbital shaker. Supernatant from each well was removed and centrifuged at 13000 g for 5 minutes to remove cell debris. Soluble fractions were kept for protein quantification.
• The OD^450 of 100 μl fractions (measured in duplicate) of post-incubation Wst1 reagent was measured. […]

B16 cells [2] = experiment: Melanin synthesis in B16 cells after SLC24A5 siRNA knockdown (OD450 of media); format: cell-based, mouse; details: transfected 8 hours, cultured a further 3 days
Procedure: Cells were transfected (lipofectamine 2000) with siRNA duplexes or controls for 8 hours. Cells were cultured for a further 3 days prior to analyses.
as §1
Experiment (each in quadruplicate) reproduced x3 consecutively.
24 h prior to transfection, B16 cells were plated at 25,000 cells/well in a 48-well plate. Cells in quadruplicate wells were transfected with 2 μg/ml Lipofectamine 2000 and 50 nM Stealth™ RNAi duplexes targeting SLC24A5 or scrambled controls (from Invitrogen). […]
Cells were incubated with transfection reagents for 6-8 h, reagents were then removed and replaced with phenol red-free DMEM supplemented with 10% FCS and 4 mM L-glutamine for 72 h. At 72 h, cells were taken for viability and total protein determination and supernatants analysed for melanin production.
• The phenol free DMEM culture media was removed from each well for quantification of secreted melanin. […] Soluble fractions were kept for protein quantification.
• 1 mg synthetic melanin (Sigma-Aldrich, Poole, UK) was dissolved in 50 μl of 100% DMSO. […] This standard was serially diluted (5-fold) in media+FCS to give a standard curve for quantification of melanin in sample preparations (range from 1000 to 8 μg/ml). […]

NCKX5 = experiment: Western blot of NCKX5 protein 5 days after siRNA mediated knockdown; format: cell-based, human; details: 5 days after siRNA knockdown, rabbit anti-NCKX5 pAb (anti C-terminus peptide)
Procedure: Using western blot we have investigated NCKX5 protein expression 5 days after siRNA mediated knockdown (all 5 siRNA duplexes and controls were tested). Western blot was also used to evaluate the expression and processing (maturation) of tyrosinase (tyr) in the same samples. SDS-PAGE (10% PA for NCKX5, 4-12% for tyr, 5 μg protein/lane). A) Western blot for NCKX5: Detection via rabbit anti-NCKX5 pAb (anti C-terminus peptide). B) Western blot for tyr, via goat pAb (Santa Cruz). 1=No treatment, 2=scrambled siRNA control, 3-7=siRNA's 185, 260, 301, 492, 1110. […] These bands are absent in the samples where SLC24A5-specific duplexes were used (lanes 3-7). It is possible that the doublet represents the presence of alternate SLC24A5 splice variants.
(§2) • Cultured Cells (trypsinised off of 6-well culture plates) were lysed on ice for 20 minutes in 1.5 ml eppendorfs using 100 μl per sample of 1% triton X-100 in dPBS containing protease inhibitor cocktail (Sigma-Aldrich, Poole, UK). Cell extracts were centrifuged (10 minutes at 13000 g) to separate melanin and cell debris from the solubilised protein. The protein concentration of each supernatant fraction was determined by BCA assay as described in A).
• 20 μg protein (as determined by BCA assay) was reconstituted into 20 μl of 1×LDS loading buffer (Invitrogen Ltd, Paisley, UK) containing 1× reducing agent (Invitrogen Ltd, Paisley, UK), heated to 40° C. for 30 minutes and loaded onto 10% Novex bis-tris acrylamide gels with 1×MOPS running buffer (Invitrogen Ltd, Paisley, UK). Kaleidoscope molecular weight markers (Bio-Rad Laboratories Ltd, Hemel Hempstead, UK) were run alongside samples for size determinations. Protein was transferred onto PVDF membrane by electrophoresis transfer, using a Bio-Rad mini-cell II trans-blotter and 1× Tris-Glycine transfer buffer (Invitrogen Ltd, Paisley, UK)+15% v/v methanol (100V for 1 hour).
• Membranes containing transferred protein were “blocked” using 2% w/v skimmed milk protein (SMP) in PBS+0.05% tween20 (PBST) for 1 hour with gentle agitation. Peptide affinity purified rabbit polyclonal antibody (raised using a peptide equivalent to the C-terminus of NCKX5-GNNKIRGCGG) was diluted to 0.5 μg/ml using 2% SMP in PBST. The diluted antibody was incubated with the membrane for 2 hours at room temperature. The membrane was then rinsed with PBST (4×5 minutes washes). Peroxidase conjugated anti-rabbit IgG (Jackson ImmunoResearch Laboratories Inc. PA, USA) was diluted 1/4000 using 2% SMP in PBST and was incubated with the membranes for 1 hour. Finally, membranes were washed using 6×5 minute rinses with PBST. SuperSignal Western pico (Perbio Science UK Ltd, Northumberland, UK) chemiluminescence detection reagents was used to probe the membranes for secondary antibody binding as per the manufacturers instructions. Visualisation of results was via a Chemidoc XRS imaging system (Bio-Rad Laboratories Ltd, Hemel Hempstead, UK).

[3] = system: lightly pigmented human melanocytes; experiment: Quantitative assessment of melanogenesis (melanin content) after siRNA knockdown in human melanocytes; format: cell-based; details: replicated x3
Procedure: A decrease in post-treatment melanin content is noted for duplex (492) in lightly pigmented human melanocytes (replicated ×3).
as §2
• To each pellet of melanin+cell debris obtained in section 2), 0.5 ml of diethyl ether:ethanol (1:1 ratio) was added. Eppendorfs were vortexed vigorously for 30 seconds and centrifuged at 13000 g for 5 minutes. The ether layer was carefully removed to waste and a further 0.5 ml was added. The tubes were agitated and centrifuged as before. The liquid phase was again removed and the melanin pellets were allowed to air dry at room temperature for 10 minutes. […] OD^45 0 of each sample was determined and the melanin content of each fraction was calculated from a synthetic melanin standard curve, prepared as described above. In treatment comparisons, results were expressed as μg melanin per μg protein. […]

Row | Substance | NCKX5 bands of approx. 42 and 44 KDa on western blot (NCKX5) | other results
1 | duplex 762: Stealth RNAi duplex targeting murine SLC24A5; sense 5′-CAGAGCUAUGGAGGAGAGAAUUGAA-3′ (antisense GUCUCGAUACCUCCUCUCUUAACUU; Stealth chemically modified RNAi duplex, pattern not given here; one strand is listed 3' to 5') | – | cell viability / toxicity (B16 cells [1]): without affecting viability; melanin synthesis / pigment production (B16 cells [2]; listed as 762): visibly decreased; also recorded: reduce pigment production
2 | duplex 1110: Stealth siRNA duplex against human SLC24A5, exon 7; 5′ CCGCATTTACATATATCCTGGTTTG 3′ (antisense CAAACCAGGATATATGTAAATGCGG; Stealth chemically modified siRNA duplex, pattern not given here) | absent | –
3 | duplex 567: Stealth RNAi duplex targeting murine SLC24A5; sense 5′-CCUCUUCCGAGACUGUGCAGUGUAU-3′ (antisense GGAGAAGGCUCUGACACGUCACAUA; Stealth chemically modified RNAi duplex, pattern not given here; one strand is listed 3' to 5') | – | cell viability / toxicity (B16 cells [1]): significant toxicity; melanin synthesis / pigment production (B16 cells [2]): visibly decreased
4 | duplex 260: Stealth siRNA duplex against human SLC24A5, exon 2; 5′ GAGCGCAGAGATGGAGGCATCATAA 3′ (antisense TTATGATGCCTCCATCTCTGCGCTC; Stealth chemically modified siRNA duplex, pattern not given here) | absent | –
5 | duplex 301: Stealth siRNA duplex against human SLC24A5, exon 2; 5′ CGTTTACATGTTCATGGCCATATCT 3′ (antisense AGATATGGCCATGAACATGTAAACG; Stealth chemically modified siRNA duplex, pattern not given here) | absent | –
6 | duplex 185: Stealth siRNA duplex against human SLC24A5, exon 1 & 2 boundary; 5′ AGGGCCACAGGAAATAGCACCCAAT 3′ (antisense ATTGGGTGCTATTTCCTGTGGCCCT; Stealth chemically modified siRNA duplex, pattern not given here) | absent | –
7 | duplex 492: Stealth siRNA duplex against human SLC24A5, exon 3 & 4 boundary; 5′ GCACCATCCTTGGATCTGCAATTTA 3′ (antisense TAAATTGCAGATCCAAGGATGGTGC; Stealth chemically modified siRNA duplex, pattern not given here) | absent | post-treatment melanin content [3]: decrease
